Here are results for seven molecules from article PMC13128453, “Complexoform-restricted covalent TRMT112 ligands that allosterically agonize METTL5” (Nature Chemical Biology, 2025).

Where only a bound is given, the exact number is not on record here.

The target of test [1] is T1, TRMT112 (Homo sapiens, UniProt Q9NRN9+Q9UI30). As to the kind of experiment: intact MS kobs/[I] on purified complex; competitive gel-ABPP in HCT116 cells (IC50). Type of test: cell-based. Further details: TRMT112-FLAG:HA-METTL5 in HCT116 cells (IC50); purified TRMT112:His-METTL5 (intact MS); with METTL5.
For another test, the target named is T2, REEP5 (Homo sapiens, UniProt Q00765).
T2 construct: endogenous protein in Ramos cells
As to the kind of experiment: cysteine-directed and competitive protein-directed ABPP in cells. The format is cell-based. To be noted: read-out: Competition (%).

Another test has as its target T3, UVRAG (Homo sapiens, UniProt Q9P2Y5).
T3 construct: endogenous protein in Ramos cells
T3 sequence (Q9P2Y5 1-699): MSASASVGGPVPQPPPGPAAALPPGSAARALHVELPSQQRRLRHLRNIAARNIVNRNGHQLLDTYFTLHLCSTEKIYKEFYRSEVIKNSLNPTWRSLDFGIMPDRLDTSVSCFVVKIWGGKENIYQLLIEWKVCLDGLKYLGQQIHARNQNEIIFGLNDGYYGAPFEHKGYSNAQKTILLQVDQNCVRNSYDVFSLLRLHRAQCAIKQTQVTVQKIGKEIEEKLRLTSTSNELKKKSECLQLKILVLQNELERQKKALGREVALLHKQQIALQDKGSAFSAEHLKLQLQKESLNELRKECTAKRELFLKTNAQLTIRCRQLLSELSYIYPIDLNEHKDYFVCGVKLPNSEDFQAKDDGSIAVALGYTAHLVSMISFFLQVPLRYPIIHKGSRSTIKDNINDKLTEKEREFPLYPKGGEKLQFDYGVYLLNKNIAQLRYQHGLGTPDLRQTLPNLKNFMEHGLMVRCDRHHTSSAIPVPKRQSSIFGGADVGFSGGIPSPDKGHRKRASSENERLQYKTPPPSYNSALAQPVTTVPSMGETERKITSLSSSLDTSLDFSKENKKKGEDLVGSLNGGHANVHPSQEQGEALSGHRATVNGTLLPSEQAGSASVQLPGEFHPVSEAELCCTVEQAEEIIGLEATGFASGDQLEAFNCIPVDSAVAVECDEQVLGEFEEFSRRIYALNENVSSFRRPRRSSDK
The description is as above. Type of test: cell-based. To be noted: read-out: Competition (%).

Test [2] has as its target T4, RNF14 (Homo sapiens, UniProt Q9UBS8).
T4 sequence (Q9UBS8 1-474): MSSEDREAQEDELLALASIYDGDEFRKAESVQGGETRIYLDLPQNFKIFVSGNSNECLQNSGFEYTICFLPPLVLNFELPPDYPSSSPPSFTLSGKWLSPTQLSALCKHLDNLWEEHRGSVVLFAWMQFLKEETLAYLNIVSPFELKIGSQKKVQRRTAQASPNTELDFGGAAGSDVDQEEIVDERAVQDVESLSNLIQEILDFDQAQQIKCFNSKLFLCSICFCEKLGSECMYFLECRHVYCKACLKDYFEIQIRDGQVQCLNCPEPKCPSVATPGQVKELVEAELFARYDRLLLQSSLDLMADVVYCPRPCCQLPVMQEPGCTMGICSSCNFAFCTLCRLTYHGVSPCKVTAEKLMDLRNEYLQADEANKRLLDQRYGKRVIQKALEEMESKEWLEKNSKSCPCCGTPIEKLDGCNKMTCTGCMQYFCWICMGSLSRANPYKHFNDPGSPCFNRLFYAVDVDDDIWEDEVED
As to the kind of experiment: cysteine-directed ABPP (Glu-C) and competitive protein-directed ABPP in cells. The format is cell-based. Further details: endogenous RNF14 in Ramos cells; recombinant RNF14-FLAG in HEK293T cells. The note with it: read-out: Competition (%).

For test [3], the target named is T1, TRMT112. As to the kind of experiment: intact MS kobs/[I] on purified complex; gel-ABPP and protein-directed ABPP in cells. The format is binding. Further details: purified WT-TRMT112:His-METTL5 (intact MS); TRMT112-FLAG in HCT116 cells coexpressing HA-METTL5; with METTL5.
Test [4] concerns the target T4, RNF14. The experiment in a line: gel-ABPP and protein-directed ABPP in cells. The format is cell-based. Further details: RNF14-FLAG expressed in HEK293T cells.
The target in test [5] is T1, TRMT112. The experiment in a line: […] A cocrystal structure; intact MS (kobs/[I][…] s-1); competitive gel-ABPP on purified complex. The format is binding. Further details: full-length, tag-free TRMT112:METTL5 complex (crystal); TRMT112:His-METTL5 (IC50); with METTL5.
In test [6] the target is T5, METTL5 (tag-free, of the tag-free TRMT112:METTL5 complex) (human, UniProt Q9NRN9 1-209).
T5 construct: METTL5, human, full-length gene codon-optimized for E. coli; same construct as His–METTL5, the His tag removed with TEV protease; By the printed primer a Ser would remain before the first Met after TEV cleavage; also called WT-METTL5; source: E. coli BL21 (DE3), coexpressed with TRMT112, purified (Ni-NTA, TEV cleavage, Ni-NTA, anion exchange, SEC); not shown: His tag, N-terminal, cleaved
The experiment in a line: crystal structure; tag-free TRMT112:METTL5 complex modified with FWG-33B in the presence of SAM; crystals in 21% PEG3350, 0.36 M ammonium sulfate, 0.1 M Bis–Tris pH 5.5, 4 °C; 1.3 Å. To be noted: both partners purified.

T1 sequence (Q9NRN9 whole entry, one chain of several): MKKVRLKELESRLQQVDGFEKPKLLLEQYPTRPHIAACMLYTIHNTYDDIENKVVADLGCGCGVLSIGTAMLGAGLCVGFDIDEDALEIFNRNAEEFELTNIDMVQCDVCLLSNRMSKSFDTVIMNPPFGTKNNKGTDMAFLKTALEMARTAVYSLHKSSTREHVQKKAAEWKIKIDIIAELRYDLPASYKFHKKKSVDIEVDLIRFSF
T5 sequence (Q9NRN9 whole entry, one chain of several): as above
T2 sequence (Q00765 whole entry): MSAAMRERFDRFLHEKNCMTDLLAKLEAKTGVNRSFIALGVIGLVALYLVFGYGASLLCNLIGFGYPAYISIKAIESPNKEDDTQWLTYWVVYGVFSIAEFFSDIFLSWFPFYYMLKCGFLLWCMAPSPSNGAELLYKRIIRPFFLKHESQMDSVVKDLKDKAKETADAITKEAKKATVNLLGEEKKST

Consider `C=CC(=O)N1C[C@@H]2[C@H](C1)[C@@H](c1cccc(OC)c1)C[C@H]2Oc1ccc(NC(C)=O)cc1` [compound 10, FWG-1B], for which the IC50 on TRMT112 [1] was found to be 12 µM. The inhibition at 50 µM on REEP5 is over 60%.
Consider `C=CC(=O)N1C[C@@H]2[C@H](C1)[C@H](Oc1ccc(NC(C)=O)cc1)C[C@H]2c1cccc(OC)c1` [compound 11, FWG-2A], for which the inhibition at 50 µM at UVRAG was over 80%.
`C=CC(=O)N1C[C@@H]2[C@H](C1)[C@@H](c1cccc(OC)c1)C[C@@H]2Oc1ccc(NC(C)=O)cc1` [compound 12, FWG-2B]: at RNF14 [2], the inhibition at 50 µM is over 80%.
In the case of `C#CCCC(=O)Nc1ccc(O[C@@H]2C[C@H](c3cccc(OC)c3)[C@H]3CN(C(=O)C=C)C[C@H]32)cc1` [compound 14, FWG-3B], the “intact MS kobs/[I] on purified complex; gel-ABPP and protein-directed ABPP in ce” value on TRMT112 [3] is “FWG-3B showed enhanced reactivity with TRMT112 exclusively in cells coexpressing the RNA MT METTL5”.
Consider `C#CCCC(=O)Nc1ccc(O[C@H]2C[C@H](c3cccc(OC)c3)[C@H]3CN(C(=O)C=C)C[C@H]32)cc1` [compound 16, FWG-4B], for which the “gel-ABPP and protein-directed ABPP in cells” value on RNF14 [4] was “engagement of recombinant WT-RNF14-FLAG and C68A-RNF14-FLAG, but not C212A-RNF14-FLAG by FWG-4B”.
In turn, `C=CC(=O)N1C[C@@H]2[C@H](C1)[C@@H](c1cccc(Cl)c1)C[C@H]2Oc1ccc(NC(C)=O)cc1` [compound 22, FWG-33B] returned a 50% inhibitory concentration (IC50) at TRMT112 [5] of 0.47 µM.

B1: TRMT112 modified by FWG-33B at C100 (of the FWG-33B-liganded tag-free TRMT112:METTL5 complex) (natural protein, human, UniProt Q9UI30 1-125, looked up)
chain: MKLLTHNLLSSHVRGVGSRGFPLRLQATEVRICPVEFNPNFVARMIPKVEWSAFLEAADNLRLIQVPKGPVEGYEENEEFLRTMHHLLLEVEVIEGTLQCPESGRMFPISRGIPNMLLSEEETES
modifications: covalent adduct between the acrylamide of FWG-33B and C100
notes: TRMT112, human, full-length gene codon-optimized for E. coli, in pACYCDuet-1; also called FWG-33B-modified TRMT112; source: E. coli BL21 (DE3), coexpressed with METTL5, purified as tag-free complex, then treated with 100 μM FWG-33B
Take B1: in test [6], the binding result is “binds”.

As a reminder, the IC50 is the concentration that gives 50% inhibition. Low readings indicate greater potency in that assay, high ones weaker potency in that assay.
